Test results reported in US20250215039A1, “NUCLEOSIDES FOR TREATING CANCER” (PRIMEFOUR THERAPEUTICS, INC., priority 2022, published 2025).
Read-outs that look alike come from different tables or passages of the source.

Tested on: cancer cell lines
Assay: Cancer cell proliferation activity (CellTiterGlo, 72 h)
Assay type: cell-based
Conditions: 72 h, 72 h, read-out: IC50 cell proliferation
Method in brief: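 Cells seeded overnight at 37 °C, then dosed with compound at 0.1% final DMSO and incubated 72 h at 37 °C (5% or 10% CO2 by medium).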

IC50 (5637 (bladder)): 950 nM
IC50 (CLS439 (bladder)): 2640 nM
IC50 (HS729 (muscle)): 440 nM
IC50 (J82 (bladder)): 1810 nM
IC50 (JAR (placenta)): 1600 nM
IC50 (MT3 (breast)): 230 nM
IC50 (PANCI (pancreas)): 5060 nM
IC50 (PC3 (prostate)): 280 nM
IC50 (RD (muscle)): 960 nM
IC50 (T24 (bladder)): 560 nM
IC50 (Homo sapiens, 22Rv1, 72 h, 22RV1 (prostate)): 2890 nM
IC50 (Homo sapiens, 786-0, 72 h, 786O (kidney)): 1570 nM
IC50 (Homo sapiens, A204, 72 h, A204 (muscle)): 190 nM
IC50 (Homo sapiens, A549, 72 h, A549 (lung)): 1330 nM
IC50 (Homo sapiens, A673, 72 h, A673 (bone)): 2530 nM
IC50 (Homo sapiens, A2780, 72 h, A2780 (ovary)): 1670 nM
IC50 (Homo sapiens, A-375, 72 h, A375 (skin)): 570 nM
IC50 (Homo sapiens, A-431, 72 h, A431 (skin)): 1240 nM
IC50 (Homo sapiens, ACHN, ACHN (kidney)): 1050 nM
IC50 (Homo sapiens, ASPC1, 72 h, ASPC1 (pancreas)): 320 nM
IC50 (Homo sapiens, BT-20, 72 h, BT20 (breast)): 2120 nM
IC50 (Homo sapiens, BXPC-3, 72 h, BXPC3 (pancreas)): 430 nM
IC50 (Homo sapiens, C-33-A, C33A (endometrial)): 410 nM
IC50 (Homo sapiens, CAKI-1, 72 h, CAKI1 (kidney)): 130 nM
IC50 (Homo sapiens, COLO 205, 72 h, COLO205 (colon)): 420 nM
IC50 (Homo sapiens, COLO-678, 72 h, COLO678 (colon)): 630 nM
IC50 (Homo sapiens, Ca-Ski, CASKI (endometrial)): 990 nM
IC50 (Homo sapiens, Caco-2, 72 h, CACO2 (colon)): 3520 nM
IC50 (Homo sapiens, Calu-6, 72 h, CALU6 (lung)): 400 nM
IC50 (Homo sapiens, DLD-1, 72 h, DLD1 (colon)): 1030 nM
IC50 (Homo sapiens, DU-145, 72 h, DU145 (prostate)): 340 nM
IC50 (Homo sapiens, EFO-21, 72 h, EFO21 (ovary)): 460 nM
IC50 (Homo sapiens, EJ-28, 72 h, EJ28 (bladder)): 1060 nM
IC50 (Homo sapiens, Granta-519, 72 h, GRANTA-519 (hematological)): 680 nM
IC50 (Homo sapiens, HCT-15, 72 h, HCT15 (colon)): 2010 nM
IC50 (Homo sapiens, HCT-116, 72 h, HCT116 (colon)): 1030 nM
IC50 (Homo sapiens, HEK293, 72 h, HEK293 (kidney)): 3610 nM
IC50 (Homo sapiens, HL-60, 72 h, HL-60 (hematological)): 230 nM
IC50 (Homo sapiens, HT-29, 72 h, HT29 (colon)): 700 nM
IC50 (Homo sapiens, HT-1080, 72 h, HT1080 (connective tissue)): 2790 nM
IC50 (Homo sapiens, HeLa, HELA (endometrial)): 310 nM
IC50 (Homo sapiens, HepG2, 72 h, HEPG2 (liver)): 2750 nM
IC50 (Homo sapiens, Hs-578T, HS578T (breast)): 1640 nM
IC50 (Homo sapiens, IGROV-1, 72 h, IGROV1 (ovary)): 1280 nM
IC50 (Homo sapiens, IMR-90, 72 h, IMR90 (lung)): 540 nM
IC50 (Homo sapiens, JEG-3, 72 h, JEG3 (placenta)): 2570 nM
IC50 (Homo sapiens, JIMT-1, 72 h, JIMT1 (breast)): 180 nM
IC50 (Homo sapiens, K562, 72 h, K-562 (hematological)): 5680 nM
IC50 (Homo sapiens, Kasumi 1, 72 h, KASUMI-1 (hematological)): 60 nM
IC50 (Homo sapiens, L-363, 72 h, L-363 (hematological)): 920 nM
IC50 (Homo sapiens, LoVo, LOVO (colon)): 440 nM
IC50 (Homo sapiens, MCF7, 72 h, MCF7 (breast)): 3060 nM
IC50 (Homo sapiens, MDA-MB-231, 72 h, MDAMB231 (breast)): 160 nM
IC50 (Homo sapiens, MDA-MB-435, 72 h, MDAMB435 (skin)): 2470 nM
IC50 (Homo sapiens, MDA-MB-436, 72 h, MDAMB436 (breast)): 620 nM
IC50 (Homo sapiens, MDA-MB-468, 72 h, MDAMB468 (breast)): 1440 nM
IC50 (Homo sapiens, MG-63, 72 h, MG63 (bone)): 1630 nM
IC50 (Homo sapiens, MHH-ES-1, 72 h, MHHES1 (bone)): 460 nM
IC50 (Homo sapiens, MIA PaCa-2, 72 h, MIAPACA2 (pancreas)): 2950 nM
IC50 (Homo sapiens, MINO, MINO (hematological)): 40 nM
IC50 (Homo sapiens, MV4-11, 72 h, MV4-11 (hematological)): 270 nM
IC50 (Homo sapiens, NCI-H23, 72 h, NCI-H23 (lung)): 2040 nM
IC50 (Homo sapiens, NCI-H82, 72 h, NCIH82 (lung)): 1600 nM
IC50 (Homo sapiens, NCI-H292, 72 h, NCIH292 (lung)): 2330 nM
IC50 (Homo sapiens, NCI-H460, 72 h, NCIH460 (lung)): 1950 nM
IC50 (Homo sapiens, OVCAR-3, 72 h, OVCAR3 (ovary)): 350 nM
IC50 (Homo sapiens, OVCAR-4, 72 h, OVCAR4 (ovary)): 1860 nM
IC50 (Homo sapiens, PLC-PRF-5, 72 h, PLCPRF5 (liver)): 2840 nM
IC50 (Homo sapiens, Panc1005, 72 h, PANC1005 (pancreas)): 660 nM
IC50 (Homo sapiens, Ramos, RAMOS (hematological)): 420 nM
IC50 (Homo sapiens, SAOS-2, 72 h, SAOS2 (bone)): 110 nM
IC50 (Homo sapiens, SF-268, 72 h, SF268 (brain)): 3020 nM
IC50 (Homo sapiens, SF-295, 72 h, SF295 (brain)): 3580 nM
IC50 (Homo sapiens, SK-BR-3, 72 h, SKBR3 (breast)): 140 nM
IC50 (Homo sapiens, SK-HEP1, 72 h, SKHEP1 (liver)): 280 nM
IC50 (Homo sapiens, SK-LMS-1, 72 h, SKLMS1 (uterus)): 3020 nM
IC50 (Homo sapiens, SK-MEL-5, 72 h, SKMEL5 (skin; SKMELS [sic] in Table 9E)): 1970 nM
IC50 (Homo sapiens, SK-MEL-28, 72 h, SKMEL28 (skin)): 980 nM
IC50 (Homo sapiens, SK-N-AS, SKNAS (brain)): 2550 nM
IC50 (Homo sapiens, SK-N-SH, SKNSH (brain)): 2260 nM
IC50 (Homo sapiens, SK-OV-3, 72 h, SKOV3 (ovary)): 510 nM
IC50 (Homo sapiens, SNB-75, 72 h, SNB75 (brain)): 1470 nM
IC50 (Homo sapiens, SU-DHL10, 72 h, SU-DHL-10 (hematological)): 730 nM
IC50 (Homo sapiens, SU-DHL-6, 72 h, SU-DHL-6 (hematological)): 980 nM
IC50 (Homo sapiens, SW-620, 72 h, SW620 (colon)): 680 nM
IC50 (Homo sapiens, TE-671, 72 h, TE671 (muscle)): 780 nM
IC50 (Homo sapiens, THP-1, 72 h, THP-1 (hematological)): 130 nM
IC50 (Homo sapiens, U2OS, U20S (bone; U2OS in Table 9E)): 960 nM
IC50 (Homo sapiens, U-87 MG, U87MG (brain)): 620 nM
IC50 (Homo sapiens, UMUC3, 72 h, UMUC3 (bladder)): 970 nM
IC50 (Homo sapiens, UO-31, 72 h, UO31 (kidney)): 420 nM
IC50 (Homo sapiens, WSU-NHL, WSU-NHL (hematological)): 340 nM
IC50 (NCI-H358M, NCIH358M (lung)): 60 nM
IC50 (PBMC, PBMC (hematological)): 150 nM
IC50 (RD-ES, RDES (bone)): 820 nM
SMILES: Nc1nc(F)nc2c1ncn2[C@H]1C[C@H](O)[C@@H](CO)O1 [compound 171, (2R,3S,5R)-5-(6-amino-2-fluoro-9H-purin-9-yl)-2-(hydroxymethyl)tetrahydrofuran-3-ol]
